Tests used:
Assay type in all cases: physicochemical
[1] = color stability of vitamin C in closed and open glass flasks after 3 months at room temperature (figure 2)
[2] = degradation of ascorbic acid after addition of water or ethanol to the eutectic liquid; conditions: addition of water or ethanol up to 15%, preferably up to 10%
Description: This liquid, stable at room temperature, can be incorporated into cosmetic formulas.

[3] = degradation of vitamin C at 40°C over 16 weeks, eutectic solvent compared to water (figure 1); conditions: 5 % vitamin C in eutectic solvent (5% vitamin C, 40% betaine, 55% glycerol) compared to water, 40 degrees

stability of vitamin C ([1]; 21% vitamin C in water, closed bottles): unstable
stability of vitamin C ([1]; 21% vitamin C in water, opened glass bottles): unstable
stability of vitamin C ([1]; in betaine and glycerol (21% vitamin C, 29% betaine, 50% glycerin), closed bottles): stable
degradation of the ascorbic acid [2]: without increased degradation
degradation of vitamin C [3]: enhanced protection
SMILES: O=C1O[C@H]([C@@H](O)CO)C(O)=C1O [vitamin C, ascorbic acid]

Source: patent EP4011353A1 (Beiersdorf AG, priority 2020, dated 2022)
